Experimental data reported in patent US20130317048A1, “COMBINATION COMPRISING PACLITAXEL FOR TREATING OVARIAN CANCER” (Actelion Pharmaceuticals Ltd., priority 2008, published 2013).

Legend:
SKOV3ip1 cells = assay: Human SKOV3ip1 tumor growth inhibition assay in mice; assay type: in vivo; settings: mice i.p. SKOV3ip1, after one month of treatment, paclitaxel 5 mg/kg once a week i.p., CF(I) 100 mg/kg once a day oral
Protocol: An aqueous 0.5% (by weight) solution of methylcellulose is prepared by stiffing the appropriate quantity of methylcellulose in the appropriate quantity of water for 4 hours. This solution can be prepared up to 3 days in advance. On the day of the experiment, 0.05% (by volume) of Tween 80 is dissolved in the methylcellulose solution previously obtained to yield the vehicle solution.
(§1) 43 mice are injected i.p. with 10^6 SKOV3ip1 cells. Ten days later, the tumor weight is evaluated in three of the mice. Treatment with a suspension of the compound of formula (I) in the vehicle solution (10 mice), paclitaxel (Mead Johnson, Princeton, N.J., USA) diluted 1:6 in phosphate buffered saline (PBS) for i.p. injections (10 mice), a suspension of the compound of formula (I) in the vehicle solution as well as paclitaxel diluted 1:6 in PBS for further dilution and i.p. injections (10 mice), or the vehicle solution only (10 mice), the vehicle solution being as described above, is administered to the mice using the following doses, frequencies and routes: • paclitaxel: 5 mg/kg (125 μg paclitaxel in 200 μL PBS per mouse), once a week, i.p. route; • compound of formula (I): 100 mg/kg (as suspension in the vehicle solution at a concentration of up to 25 mg/mL), once a day, oral route.
After one month of treatment, the tumor incidence and weight are determined in each of the mice. At the same time, the ascite incidence and volume are also determined.

IGROV cells = assay: Human IGROV tumor growth inhibition assay in mice; assay type: in vivo; settings: female nude mice i.p. IGROV; after 4 weeks of treatment; paclitaxel 5 mg/kg once a week i.p.; CF(I) 50 mg/kg once a day oral
Protocol: (§2) The vehicle solution is the same as that described for the “Human SKOV3ip1 tumor growth inhibition assay in mice” (see above).
as §1, with “43 female nude” for “43”, “IGROV cells into the peritoneal cavity.” for “SKOV3ip1 cells.”, “paclitaxel” for “paclitaxel (Mead Johnson, Princeton, N.J., USA)”, “for” for “for further dilution and”, “50” for “100”
After 4 weeks of treatment, the tumor incidence and weight are determined in each of the mice.

HeyA8-MDR cells = assay: Multi-drug resistant human ovarian HeyA8-MDR tumor growth inhibition assay in mice; assay type: in vivo; settings: female nude mice i.p. HeyA8-MDR; after 4 weeks of treatment; paclitaxel 5 mg/kg once a week i.p.; CF(I) 50 mg/kg once a day oral
Protocol: as §2
43 female nude mice are injected i.p. with 10^6 HeyA8-MDR cells into the peritoneal cavity. Ten days later, the tumor weight is evaluated in three of the mice. Mice groups and treatments (doses, frequencies and routes) for the mice groups are the same as those described in the experimental procedure for the “Human IGROV tumor growth inhibition assay in mice” (see above). After 4 weeks of treatment, the tumor incidence and weight are determined in each of the mice.

human ovarian carcinoma = settings: in vitro and in vivo; cited from earlier work
ovarian cancer = settings: combined with paclitaxel; cited from earlier work
ovarian tumor cells = settings: in vitro; cited from earlier work

Row | SMILES | Ascite incidence (SKOV3ip1 cells) | Ascites (mL) Median (range) (SKOV3ip1 cells) | Body weight (g) Mean ± S.D. (SKOV3ip1 cells) [g] | Tumor incidence (SKOV3ip1 cells) | Tumor weight (g) Median (range) (SKOV3ip1 cells) | Body weight (g) Mean ± S.D. (IGROV cells) [g] | Tumor incidence (IGROV cells) | Tumor weight (g) Median (range) (IGROV cells) | Body weight (g) Mean ± S.D. (HeyA8-MDR cells) [g] | Tumor incidence (HeyA8-MDR cells) | Tumor weight (g) Median (range) (HeyA8-MDR cells) | other results
1 | CC(=O)O[C@H]1C(=O)[C@@]2(C)[C@H]([C@H](OC(=O)c3ccccc3)[C@]3(O)C[C@H](OC(=O)[C@H](O)[C@@H](NC(=O)c4ccccc4)c4ccccc4)C(C)=C1C3(C)C)[C@]1(OC(C)=O)CO[C@@H]1C[C@@H]2O [Paclitaxel] | 4/9 | 0.1 (0-0.2) mL | 23.6 ± 1.9 | 9/9 | 0.4 (0.1-0.5) g | 28.5 ± 2.4 | 9/10 | 0.5 (0-0.9) g | 27.7 ± 3.7 | 10/10 | 1.0 (0.5-2.3) g | Ascite incidence (SKOV3ip1 cells; listed as paclitaxel): 4 out of 9; Tumor incidence (SKOV3ip1 cells; listed as paclitaxel): all mice still had tumors
2 | COc1nc(C)cnc1NS(=O)(=O)c1cccnc1-c1ccc(-c2nnco2)cc1 [ZD4054] | – | – | – | – | – | – | – | – | – | – | – | Effect on tumor growth and paclitaxel activity (human ovarian carcinoma): inhibits tumor growth and enhances paclitaxel activity
3 | CCCCN(CCCC)C(=O)CN1C[C@H](c2ccc3c(c2)OCO3)[C@@H](C(=O)O)[C@@H]1c1ccc(OC)cc1 [ABT-627, atrasentan] | – | – | – | – | – | – | – | – | – | – | – | Effect of combination with paclitaxel (ovarian cancer): additive antitumor, apoptotic and antiangiogenic effects
4 | CCCC[C@@H](NC(=O)[C@@H](Cc1cn(C(=O)OC)c2ccccc12)NC(=O)[C@H](CC(C)(C)C)NC(=O)N1[C@H](C)CCC[C@@H]1C)C(=O)O [BQ 788] | – | – | – | – | – | – | – | – | – | – | – | Inhibition of cell adhesiveness (ovarian tumor cells): ineffective
5 | CCCNS(=O)(=O)Nc1ncnc(OCCOc2ncc(Br)cn2)c1-c1ccc(Br)cc1 [CF(I), macitentan] | 7/10 | 0.4 (0-4.7) mL | 25.5 ± 2.6 | 7/10 | 2.3 (0-4.6) g | 31.0 ± 4.4 | 10/10 | 0.7 (0.4-1.3) g | 27.0 ± 2.2 | 6/10 | 0.1 (0-0.3) g | Ascite incidence (SKOV3ip1 cells; listed as compound of formula (I)): 7 out of 10
